The record followed here is ChEMBL document CHEMBL1828558, “Discovery of (+)-N-(3-aminopropyl)-N-[1-(5-benzyl-3-methyl-4-oxo-[1,2]thiazolo[5,4-d]pyrimidin-6-yl)-2-methylpropyl]-4-methylbenzamide (AZD4877), a kinesin spindle protein inhibitor and potential anticancer agent” (J Med Chem, 2011).

Data set [1] in a line: Half-life in rat at 1 and 5 mg/kg, iv administered as bolus dose. The format is ADME, organism-based. Also on record: dose 5 mg/kg, route intravenous. Particulars: in vivo.
Data set [2] is described as follows: Initial plasma concentration in Wistar rat at 6 mg/kg, iv administered as a single bolus dose. The format is ADME, organism-based. Also noted: dose 6 mg/kg, route intravenous.
In another data set the target is T1, Kinesin-1 heavy chain (Homo sapiens, UniProt P33176).
T1 sequence (P33176 whole entry): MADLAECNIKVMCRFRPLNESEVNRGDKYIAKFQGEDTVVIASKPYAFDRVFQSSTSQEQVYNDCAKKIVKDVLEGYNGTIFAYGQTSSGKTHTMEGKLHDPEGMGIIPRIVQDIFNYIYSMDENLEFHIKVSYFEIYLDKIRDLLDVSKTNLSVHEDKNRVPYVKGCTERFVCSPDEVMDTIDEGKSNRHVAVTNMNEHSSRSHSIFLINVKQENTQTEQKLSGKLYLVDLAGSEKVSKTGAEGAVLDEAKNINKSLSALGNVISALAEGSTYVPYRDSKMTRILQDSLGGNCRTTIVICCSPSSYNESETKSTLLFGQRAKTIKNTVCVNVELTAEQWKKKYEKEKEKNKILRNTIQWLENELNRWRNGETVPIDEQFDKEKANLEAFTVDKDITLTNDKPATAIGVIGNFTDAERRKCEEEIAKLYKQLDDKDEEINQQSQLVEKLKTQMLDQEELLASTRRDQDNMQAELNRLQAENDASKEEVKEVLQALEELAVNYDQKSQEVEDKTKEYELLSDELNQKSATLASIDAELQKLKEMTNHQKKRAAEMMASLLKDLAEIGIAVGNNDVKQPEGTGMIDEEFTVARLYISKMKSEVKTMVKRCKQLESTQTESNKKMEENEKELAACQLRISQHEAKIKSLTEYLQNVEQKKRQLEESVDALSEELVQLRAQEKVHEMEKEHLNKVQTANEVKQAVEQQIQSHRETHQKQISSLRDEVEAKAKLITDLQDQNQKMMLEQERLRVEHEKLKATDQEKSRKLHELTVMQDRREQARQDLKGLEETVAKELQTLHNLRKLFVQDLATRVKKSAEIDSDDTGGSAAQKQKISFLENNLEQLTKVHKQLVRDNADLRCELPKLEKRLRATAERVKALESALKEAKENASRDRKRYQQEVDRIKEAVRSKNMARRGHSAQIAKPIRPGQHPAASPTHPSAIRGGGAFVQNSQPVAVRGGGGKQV
The data set is described as follows: Inhibition of human GST-conventional kinesin ATPase activity after 20 mins by malachite green assay.

A further data set is filed under the species Rattus norvegicus. The experiment in a line: Hepatic blood flow in Wistar rat. The format is ADME, organism-based, Liver.
Data set [3] in a line: Drug level in fiber in Hans Wistar rat hollow fiber model implanted with human COLO205 cells at 6 mg/kg, iv after 24 hrs. The format is ADME, organism-based, COLO 205. Also noted: dose 6 mg/kg, route intravenous. Particulars: read-out: Drug uptake.
For a further data set, the target named is Cytochrome P450 2C9 (Homo sapiens, UniProt P11712). The data set is described as follows: Inhibition of human recombinant CYP2C9. The format is ADME.
Sequence of Cytochrome P450 2C9 (P11712 whole entry): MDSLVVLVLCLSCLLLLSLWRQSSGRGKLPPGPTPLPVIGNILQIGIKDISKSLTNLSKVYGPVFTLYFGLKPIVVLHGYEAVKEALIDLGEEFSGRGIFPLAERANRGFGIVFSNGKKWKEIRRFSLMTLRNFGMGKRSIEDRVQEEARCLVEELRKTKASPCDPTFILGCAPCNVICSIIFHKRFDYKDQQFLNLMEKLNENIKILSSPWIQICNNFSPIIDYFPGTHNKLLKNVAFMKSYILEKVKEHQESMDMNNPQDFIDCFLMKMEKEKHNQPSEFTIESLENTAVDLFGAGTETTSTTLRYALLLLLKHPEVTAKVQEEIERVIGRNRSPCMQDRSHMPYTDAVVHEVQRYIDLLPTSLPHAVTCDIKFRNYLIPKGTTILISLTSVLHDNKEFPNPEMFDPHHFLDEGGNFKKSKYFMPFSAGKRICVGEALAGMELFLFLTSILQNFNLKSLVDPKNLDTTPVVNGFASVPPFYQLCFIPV
Data set [4] is described as follows: Plasma protein binding in human. The format is ADME, cell-free. Particulars: read-out: PPB (converted).
A further data set relates to Liver microsomes. The data set is described as follows: Intrinsic clearance in Wistar rat liver microsomes at 2 uM. The format is ADME, Microsome. Background: Liver microsomes are a subcellular fraction often used to study metabolism.
The nature of data set [5]: Half-life in Wistar rat at 6 mg/kg, iv administered as a single bolus dose. Also noted: dose 6 mg/kg, route intravenous. Particulars: in vivo. The format is ADME, organism-based.
Data set [6] can be described thus: Plasma protein binding in Wistar rat. The format is ADME, cell-free. Particulars: read-out: PPB (converted).
A further data set concerns the target Cytochrome P450 2D6 (Homo sapiens, UniProt P10635). The experiment in a line: Inhibition of human recombinant CYP2D6. The format is ADME.
The target in another data set is Cytochrome P450 3A4 (Homo sapiens, UniProt P08684). The experiment in a line: Inhibition of human recombinant CYP3A4. The format is ADME.
Sequence of Cytochrome P450 3A4 (P08684 whole entry): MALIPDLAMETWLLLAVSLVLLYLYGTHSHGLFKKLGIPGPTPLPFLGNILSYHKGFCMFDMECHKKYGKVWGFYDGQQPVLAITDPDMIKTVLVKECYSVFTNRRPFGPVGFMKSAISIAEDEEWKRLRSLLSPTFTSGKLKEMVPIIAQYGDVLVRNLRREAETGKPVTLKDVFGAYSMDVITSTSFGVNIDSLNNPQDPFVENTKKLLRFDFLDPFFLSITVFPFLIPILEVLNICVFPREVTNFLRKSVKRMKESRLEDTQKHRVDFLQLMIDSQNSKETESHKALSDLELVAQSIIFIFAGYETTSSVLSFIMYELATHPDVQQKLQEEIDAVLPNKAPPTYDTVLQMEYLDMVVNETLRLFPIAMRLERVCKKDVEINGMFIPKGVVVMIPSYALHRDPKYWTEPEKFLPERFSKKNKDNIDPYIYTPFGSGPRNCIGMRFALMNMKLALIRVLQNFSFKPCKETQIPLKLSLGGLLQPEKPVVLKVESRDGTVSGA
For a further data set, the system named is COLO 205. The data set is described as follows: Anticancer activity against human COLO205 cells after 72 hrs by MTS/PMS assay. Particulars: colo 205. The format is functional, cell-based.
In another data set the target is Cytochrome P450 2C19 (Homo sapiens, UniProt P33261). The data set is described as follows: Inhibition of human recombinant CYP2C19. The format is ADME.
Sequence of Cytochrome P450 2C19 (P33261 whole entry): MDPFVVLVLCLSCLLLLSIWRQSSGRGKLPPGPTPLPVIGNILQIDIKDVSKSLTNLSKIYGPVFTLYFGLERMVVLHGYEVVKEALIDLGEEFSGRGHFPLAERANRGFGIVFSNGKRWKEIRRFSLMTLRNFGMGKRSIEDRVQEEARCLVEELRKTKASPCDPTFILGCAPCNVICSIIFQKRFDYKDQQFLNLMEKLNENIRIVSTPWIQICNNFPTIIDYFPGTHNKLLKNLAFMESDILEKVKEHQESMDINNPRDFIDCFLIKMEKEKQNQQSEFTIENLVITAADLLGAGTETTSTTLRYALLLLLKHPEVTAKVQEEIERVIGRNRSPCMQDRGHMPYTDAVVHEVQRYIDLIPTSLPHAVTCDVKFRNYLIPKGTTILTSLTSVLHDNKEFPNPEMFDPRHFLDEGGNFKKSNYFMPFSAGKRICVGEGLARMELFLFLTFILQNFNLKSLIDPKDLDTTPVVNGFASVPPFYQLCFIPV

Sequence of Cytochrome P450 2D6 (P10635 whole entry): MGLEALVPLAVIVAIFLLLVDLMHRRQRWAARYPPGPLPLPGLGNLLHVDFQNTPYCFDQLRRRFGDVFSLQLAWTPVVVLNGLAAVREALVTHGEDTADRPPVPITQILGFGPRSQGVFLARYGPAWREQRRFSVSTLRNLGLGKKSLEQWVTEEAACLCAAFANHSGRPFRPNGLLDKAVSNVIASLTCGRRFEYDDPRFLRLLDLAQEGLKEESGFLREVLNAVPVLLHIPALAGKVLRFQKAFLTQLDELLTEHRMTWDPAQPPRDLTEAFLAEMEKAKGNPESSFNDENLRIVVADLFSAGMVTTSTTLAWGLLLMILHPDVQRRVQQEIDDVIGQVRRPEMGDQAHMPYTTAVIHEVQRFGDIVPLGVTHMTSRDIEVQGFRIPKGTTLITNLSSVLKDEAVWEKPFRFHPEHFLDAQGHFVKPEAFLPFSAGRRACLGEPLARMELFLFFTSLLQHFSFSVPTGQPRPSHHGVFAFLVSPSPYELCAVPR

For orientation: half-life means the time needed for the level to fall by half in the phase considered. A low value points to fast loss. As usually defined, the IC50 is the point on the concentration scale where inhibition reaches its midpoint. For `Cc1ccc(C(=O)N(CCCN)C(c2nc3snc(C)c3c(=O)n2Cc2ccccc2)C(C)C)cc1` (single isomer, unassigned; (+)) [AZD-4877], the half-life in data set [1] and in data set [5] was 3.5 h in each case. The C0 in data set [2] stood at 1080 ng/mL. In addition, the IC50 against Kinesin-1 heavy chain was > 100 µM; at Cytochrome P450 2C9, > 10 µM; on Cytochrome P450 2D6, > 10 µM; at Cytochrome P450 3A4 it was > 10 µM; in the data set with COLO 205, 0.003 µM; at Cytochrome P450 2C19 it was > 10 µM. In the data set listed under Rattus norvegicus, the QH was determined as 52%. In addition, the concentration at 24 h in [3] is 30.7 ng/mL. Besides, the fraction unbound is 0.046 in data set [4] and 0.044 in [6]. Also, the clearance with Liver microsomes is < 10 µL/min/mg.
